Reference: patent US20230117034A1, “PYRAZOLOTRIAZINES” (Bayer Aktiengesellschaft, priority 2019, published 2023)

Key:
[1] = target: T1, CDK12 (nuclear staining in CAL-120 cells) (Homo sapiens, UniProt Q9NYV4); test: CDK12 nuclear protein level: immunofluorescence/high content analysis (CAL-120); assay type: cell-based; conditions: for DC50: CAL-120 cells, 24 h, immunofluorescence, 50% reduction of nuclear CDK12 staining intensity, median, read-out: CDK12 degradation IF, DC50- [mol/l] (median); for (IC50 CDK12 high ATP) to (Degradation DC50 CDK12) ratio: ratio of IC50 CDK12 high ATP kinase assay to DC50 CDK12 degradation (IF, CAL-120)
T1 construct: endogenous in cells; host or cells: CAL-120 human breast cancer cells (DSMZ ACC 459)
T1 sequence (Q9NYV4 whole entry): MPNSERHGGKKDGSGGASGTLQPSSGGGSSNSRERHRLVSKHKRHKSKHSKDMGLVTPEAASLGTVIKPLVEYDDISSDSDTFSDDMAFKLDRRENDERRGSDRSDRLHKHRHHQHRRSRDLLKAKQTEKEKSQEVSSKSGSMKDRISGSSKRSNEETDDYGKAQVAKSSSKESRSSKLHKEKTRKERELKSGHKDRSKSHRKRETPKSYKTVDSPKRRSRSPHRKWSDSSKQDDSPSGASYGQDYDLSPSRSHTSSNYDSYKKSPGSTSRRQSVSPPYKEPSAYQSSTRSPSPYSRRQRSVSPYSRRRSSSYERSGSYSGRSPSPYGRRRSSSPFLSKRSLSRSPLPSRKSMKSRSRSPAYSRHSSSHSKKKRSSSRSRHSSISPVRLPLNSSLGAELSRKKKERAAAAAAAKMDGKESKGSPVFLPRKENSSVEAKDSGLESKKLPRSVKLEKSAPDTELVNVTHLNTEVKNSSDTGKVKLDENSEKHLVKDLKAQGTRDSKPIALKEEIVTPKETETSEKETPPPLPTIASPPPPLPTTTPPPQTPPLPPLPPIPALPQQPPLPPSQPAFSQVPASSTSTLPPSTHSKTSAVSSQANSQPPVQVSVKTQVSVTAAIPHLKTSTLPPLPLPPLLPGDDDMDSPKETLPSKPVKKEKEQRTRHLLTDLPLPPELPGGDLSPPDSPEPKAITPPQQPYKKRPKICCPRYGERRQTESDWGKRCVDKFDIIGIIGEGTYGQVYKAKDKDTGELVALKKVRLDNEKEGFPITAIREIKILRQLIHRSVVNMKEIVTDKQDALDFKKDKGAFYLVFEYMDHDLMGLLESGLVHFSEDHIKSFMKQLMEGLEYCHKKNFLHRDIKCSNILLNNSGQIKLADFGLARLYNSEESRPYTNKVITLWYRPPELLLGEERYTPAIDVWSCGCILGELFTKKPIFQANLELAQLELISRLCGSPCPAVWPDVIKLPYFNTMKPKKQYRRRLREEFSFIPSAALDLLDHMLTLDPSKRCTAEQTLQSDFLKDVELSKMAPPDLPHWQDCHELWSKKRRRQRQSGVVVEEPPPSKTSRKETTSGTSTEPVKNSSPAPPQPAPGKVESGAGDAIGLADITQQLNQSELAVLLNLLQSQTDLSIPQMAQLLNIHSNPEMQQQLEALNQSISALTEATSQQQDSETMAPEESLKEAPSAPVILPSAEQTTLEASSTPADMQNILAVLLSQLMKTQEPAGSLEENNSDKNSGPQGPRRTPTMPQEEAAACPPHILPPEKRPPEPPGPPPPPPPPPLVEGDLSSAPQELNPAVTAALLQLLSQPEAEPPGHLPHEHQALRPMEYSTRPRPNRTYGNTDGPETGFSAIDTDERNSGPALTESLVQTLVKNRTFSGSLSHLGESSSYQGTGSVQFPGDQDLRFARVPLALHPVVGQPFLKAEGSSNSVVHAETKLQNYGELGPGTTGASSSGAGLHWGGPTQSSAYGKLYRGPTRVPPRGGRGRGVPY
T1 sequence (O75909 whole entry partner): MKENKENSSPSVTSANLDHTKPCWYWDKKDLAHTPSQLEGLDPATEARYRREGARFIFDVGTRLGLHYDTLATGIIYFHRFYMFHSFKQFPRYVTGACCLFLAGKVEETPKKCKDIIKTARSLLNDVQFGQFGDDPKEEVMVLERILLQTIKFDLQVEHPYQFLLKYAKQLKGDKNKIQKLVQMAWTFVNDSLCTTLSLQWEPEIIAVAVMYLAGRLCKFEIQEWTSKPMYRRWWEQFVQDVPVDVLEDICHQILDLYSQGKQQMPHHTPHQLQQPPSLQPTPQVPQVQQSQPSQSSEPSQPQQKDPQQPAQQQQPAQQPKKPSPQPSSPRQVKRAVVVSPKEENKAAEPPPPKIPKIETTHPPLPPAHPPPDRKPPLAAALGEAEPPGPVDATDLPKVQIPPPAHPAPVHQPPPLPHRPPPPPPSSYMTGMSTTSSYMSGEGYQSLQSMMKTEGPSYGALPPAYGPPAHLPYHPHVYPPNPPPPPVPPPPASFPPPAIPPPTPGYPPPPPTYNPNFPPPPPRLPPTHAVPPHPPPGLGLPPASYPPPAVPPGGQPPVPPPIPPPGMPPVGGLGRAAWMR
Procedure: In the context of the present invention, the term “DC50 CDK12” refers to the DC50 values obtained according to the assay described in this section (7) herein below, i.e. the DC50 values for the degradation of CDK12.
Plates are then incubated for 24 h at 37° C. in an humidified incubator and fixed with 4% PFA for 10 min. […] Nuclear and cytoplasmic intensity as well as the nuclear/cytoplasmic intensity ratio is determined by automated image analysis using custom generated scripts (MetaXpress). Data is then transferred to Genedata Screener software, normalized to DMSO and control and DC50 values (degrading concentration to achieve 50% reduction of nuclear CDK12 staining intensity relative to controls) are reported.

CDK12/CycK = CDK12/CycK (Homo sapiens, UniProt Q9NYV4); test: CDK12/CycK high ATP kinase assay (TR-FRET, 2 mM ATP); assay type: biochemical; conditions: 2 mM ATP (high ATP); median; read-out: CDK12/CyclinK, 2 mM ATP (high ATP), IC50-[mol/l] (median)
CDK12/CycK, sequence (Q9NYV4 with tags, fused parts or gaps): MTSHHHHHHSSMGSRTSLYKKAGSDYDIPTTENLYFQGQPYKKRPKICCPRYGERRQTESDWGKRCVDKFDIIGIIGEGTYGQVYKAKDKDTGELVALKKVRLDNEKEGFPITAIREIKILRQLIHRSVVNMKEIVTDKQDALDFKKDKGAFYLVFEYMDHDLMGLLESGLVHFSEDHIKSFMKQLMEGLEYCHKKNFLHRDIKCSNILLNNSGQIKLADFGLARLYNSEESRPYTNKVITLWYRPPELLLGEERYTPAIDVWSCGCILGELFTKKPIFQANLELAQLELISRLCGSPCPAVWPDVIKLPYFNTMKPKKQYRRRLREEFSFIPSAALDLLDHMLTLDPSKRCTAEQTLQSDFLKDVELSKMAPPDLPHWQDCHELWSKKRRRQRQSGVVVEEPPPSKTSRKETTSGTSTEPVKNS
CDK12/CycK, sequence (O75909 1-300 partner limits assumed): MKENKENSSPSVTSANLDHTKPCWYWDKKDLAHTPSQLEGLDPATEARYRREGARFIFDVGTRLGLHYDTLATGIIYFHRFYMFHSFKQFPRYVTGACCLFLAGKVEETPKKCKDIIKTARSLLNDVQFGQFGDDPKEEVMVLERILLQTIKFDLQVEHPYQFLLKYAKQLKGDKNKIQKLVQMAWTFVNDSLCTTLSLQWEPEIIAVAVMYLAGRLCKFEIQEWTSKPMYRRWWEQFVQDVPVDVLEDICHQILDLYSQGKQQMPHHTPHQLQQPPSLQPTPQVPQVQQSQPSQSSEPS
Procedure: In the context of the present invention, the term “IC50 CDK12 hATP” refers to the IC50 values obtained according to the assay described in this section (2.2) herein below, i.e. the IC50 values for the inhibition of CDK12 at high (2 mM) ATP.
CDK12/CycK-inhibitory activity of compounds of the present invention at 2 millimol/L adenosine-tri-phosphate (ATP) was quantified employing the TR-FRET (TR-FRET=Time Resolved Fluorescence Energy Transfer) based CDK12/CycK activity inhibition assay as described in the following paragraphs.
A complex of human recombinant CDK12 and human recombinant CycK (both N-terminally His-tagged, expression and purification as described above) was used as enzyme. As substrate for the kinase reaction biotinylated peptide biotin-Ahx-KFELLPTPPLSPSRRSGL (C-terminus in amid form) was used which can be purchased e.g. form the company Biosyntan (Berlin-Buch, Germany).
For the assay 50 nanoL of a 100 fold concentrated solution of the test compound in DMSO was pipetted into either a black low volume 384 well microtiter plate or a black 1536 well microtiter plate (both Greiner Bio-One, Frickenhausen, Germany), 2 microL of a solution of CDK12/CycK in aqueous assay buffer [25 millimol/L HEPES pH 7.5, 20 millimol/L MgCl2, 5 millimol/L β-glycerophosphate, 2 millimol/L EGTA, 1.0 millimol/L dithiothreitol, 0.01% (v/v) Nonidet-P40 (Sigma), 0.01% (w/v) bovine serum albumin] were added and the mixture was incubated for 15 min at 22° C. to allow pre-binding of the test compounds to the enzyme before the start of the kinase reaction. Then the kinase reaction was started by the addition of 3 microL of a solution ATP (3.33 millimol/L=>final conc. in the 5 microL assay volume is 2 millimol/L) and substrate (1.67 micromol/L=>final conc. in the 5 microL assay volume is 1 micromol/L) in assay buffer and the resulting mixture was incubated for a reaction time of 60 min at 22° C. The concentration of CDK12/CycK was adjusted depending of the activity of the enzyme lot and was chosen appropriate to have the assay in the linear range, typical concentrations were about 0.75 nanomol/L. The reaction was stopped by the addition of 3 microL of a solution of TR-FRET detection reagents (125 nanomol/L streptavidine-XL665 [Cisbio Bioassays, Codolet, France] and 0.67 nanomol/L anti-Phospho-c-Myc (Ser 62) (E1J4K)-antibody from Cell Signalling [#13748] and 2 nanomol/L LANCE EU-W1024 labeled anti-rabbit IgG antibody [Perkin-Elmer, product no. 0083]) in an aqueous EDTA-solution (133 millimol/L EDTA, 0.27% (w/v) bovine serum albumin in 66.7 millimol/L HEPES pH 7.5).
The resulting mixture was incubated 1 h at 22° C. to allow the formation of complex between the phosphorylated biotinylated peptide and the detection reagents. Subsequently the amount of phosphorylated substrate was evaluated by measurement of the resonance energy transfer from the Eu-chelate to the streptavidine-XL. Therefore, the fluorescence emissions at 620 nm and 665 nm after excitation at 350 nm was measured in a TR-FRET reader, e.g. a Pherastar FS (BMG Labtechnologies, Offenburg, Germany) or a Viewlux (Perkin-Elmer). The ratio of the emissions at 665 nm and at […] was taken as the measure for the amount of phosphorylated substrate. The data were normalised (enzyme reaction without inhibitor=0% inhibition, all other assay components but no enzyme=100% inhibition).

[2] = tested on: CAL-120, human breast adenocarcinoma cells; test: Proliferation assay CAL-120 (crystal violet, 4 days); assay type: cell-based; conditions: Homo sapiens, CAL-120, 96 h, CAL-120 cells, median, read-out: Prolif-CAL-120, IC50-[mol/l] (median)
Procedure: Human tumour cells were originally obtained from the American Type Culture Collection (ATCC), or from the Deutsche Sammlung von Mikroorganismen und Zellkulturen (DSMZ, German Collection of Microorganisms and Cell Cultures). Cultivated tumour cells (CAL-120, human breast adenocarcinoma cells, DSMZ ACC-459; MDA-MB-231, human breast cancer cells, ATCC HTB-26) were plated at a density of 4,000 cells/well in a 96-well multititer plate in 200 microL of their respective growth medium supplemented 10% fetal calf serum. After 24 hours, the cells of one plate (zero-point plate) were stained with crystal violet (see below), while the medium of the other plates was supplemented with the test substances in various concentrations (0 micromol/L, as well as in the range of 0.01-10 micromol/L; the final concentration of the solvent dimethyl sulfoxide was adjusted to 0.1%) using a Tecan HP D300 Digital Dispenser. The cells were incubated for 4 days in the presence of test substances. Cell proliferation was determined by staining the cells with crystal violet: the cells were fixed by adding 20 microL/measuring point of an 11% glutaric aldehyde solution for 15 minutes at room temperature. After three washing cycles of the fixed cells with water, the plates were dried at room temperature. The cells were stained by adding 100 microL/measuring point of a 0.1% crystal violet solution (pH 3.0). After three washing cycles of the stained cells with water, the plates were dried at room temperature. The dye was dissolved by adding 100 microL/measuring point of a 10% acetic acid solution. The extinction was determined by photometry at a wavelength of 595 nm. The change of cell number, in percent, was calculated by normalization of the measured values to the extinction values of the zero-point plate (=0%) and the extinction of the untreated (0 μM) cells (=100%). The IC50 values (inhibitory concentration at 50% of maximal effect) were determined by means of a 4 parameter fit.

## [O-][S+]1CCN(c2nc(NCc3nc4ccccc4[nH]3)n3ncc(Br)c3n2)CC1 [Example 144, 4-(4-{[(1H-benzimidazol-2-yl)methyl]amino}-8-bromopyrazolo[1,5-a][1,3,5]triazin-2-yl)-1lambda^4-thiomorpholin-1-one]
[1]
  DC50: 0.00632 µM
  (IC50 CDK12 high ATP) to (Degradation DC50 CDK12) ratio: 590
CDK12/CycK
  IC50: 3.72 µM
[2]
  IC50: 0.11 µM

## Brc1cnn2c(NCc3nnc(-c4ccccc4)[nH]3)nc(N3CCNCC3)nc12.O=CO [Example 119, 8-bromo-N-[(5-phenyl-4H-1,2,4-triazol-3-yl)methyl]-2-piperazin-1-yl-pyrazolo[1,5-a][1,3,5]triazin-4-amine formate]
[1]
  DC50: 0.00154 µM
  (IC50 CDK12 high ATP) to (Degradation DC50 CDK12) ratio: 4303
CDK12/CycK
  IC50: 6.62 µM
[2]
  IC50: 0.00775 µM

## Cc1cccc2[nH]c(CNc3nc(N4CCOCC4)nc4c(Br)cnn34)nc12 [Example 150, 8-bromo-N-[(4-methyl-1H-benzimidazol-2-yl)methyl]-2-(morpholin-4-yl)pyrazolo[1,5-a][1,3,5]triazin-4-amine]
[1]
  DC50: 0.00131 µM
  (IC50 CDK12 high ATP) to (Degradation DC50 CDK12) ratio: 2033
CDK12/CycK
  IC50: 2.66 µM
[2]
  IC50: 0.0183 µM

## O=S1(=O)CCN(c2nc(NCc3nc4ccccc4[nH]3)n3ncc(Br)c3n2)CC1 [Example 166, 4-(4-{[(1H-benzimidazol-2-yl)methyl]amino}-8-bromopyrazolo[1,5-a][1,3,5]triazin-2-yl)-1 lambda^6-thiomorpholine-1,1-dione]
[1]
  DC50: 0.00339 µM
  (IC50 CDK12 high ATP) to (Degradation DC50 CDK12) ratio: 1800
CDK12/CycK
  IC50: 6.09 µM
[2]
  IC50: 0.0201 µM

## Brc1cnn2c(NCc3nc4ccccc4[nH]3)nc(N3CCN(C4CC4)CC3)nc12 [Example 138, N-[(1H-benzimidazol-2-yl)methyl]-8-bromo-2-(4-cyclopropylpiperazin-1-yl)pyrazolo[1,5-a][1,3,5]triazin-4-amine]
[1]
  DC50: 0.076 µM
  (IC50 CDK12 high ATP) to (Degradation DC50 CDK12) ratio: >263
CDK12/CycK
  IC50: > 20 µM
[2]
  IC50: 0.451 µM

## CC1(C)CN(c2nc(NCc3nnc(-c4ccccc4)[nH]3)n3ncc(C4CC4)c3n2)CCO1 [Example 94, 8-cyclopropyl-2-(2,2-dimethylmorpholin-4-yl)-N-[(5-phenyl-4H-1,2,4-triazol-3-yl)methyl]pyrazolo[1,5-a][1,3,5]triazin-4-amine]
[1]
  DC50: 0.025 µM
  (IC50 CDK12 high ATP) to (Degradation DC50 CDK12) ratio: 352
CDK12/CycK
  IC50: 8.79 µM
[2]
  IC50: 0.177 µM

## Brc1cnn2c(NCc3nc4ccccc4[nH]3)nc(N3CCNCC3)nc12 [Example 128, N-[(1H-benzimidazol-2-yl)methyl]-8-bromo-2-(piperazin-1-yl)pyrazolo[1,5-a][1,3,5]triazin-4-amine]
[1]
  DC50: 0.00137 µM
  (IC50 CDK12 high ATP) to (Degradation DC50 CDK12) ratio: 7939
CDK12/CycK
  IC50: 10.9 µM
[2]
  IC50: 0.0127 µM

## Brc1cnn2c(NCc3nc4ccccc4[nH]3)nc(N3CCC3)nc12 [Example 143, 2-(azetidin-1-yl)-N-[(1H-benzimidazol-2-yl)methyl]-8-bromopyrazolo[1,5-a][1,3,5]triazin-4-amine]
[1]
  DC50: 0.0309 µM
  (IC50 CDK12 high ATP) to (Degradation DC50 CDK12) ratio: >646
CDK12/CycK
  IC50: > 20 µM
[2]
  IC50: 0.306 µM

## C[C@@H]1CCCCN1c1nc(NCc2nc3ccccc3[nH]2)n2ncc(Br)c2n1 [Example 140, N-[(1H-benzimidazol-2-yl)methyl]-8-bromo-2-[(2R)-2-methylpiperidin-1-yl]pyrazolo[1,5-a][1,3,5]triazin-4-amine]
[1]
  DC50: 0.0583 µM
  (IC50 CDK12 high ATP) to (Degradation DC50 CDK12) ratio: 140
CDK12/CycK
  IC50: 8.15 µM
[2]
  IC50: 0.255 µM

## C[C@@H]1CN(c2nc(NCc3nnc(-c4ccccc4)[nH]3)n3ncc(Br)c3n2)CCN1C.O=CO [Example 130, 8-bromo-2-[(3R)-3,4-dimethylpiperazin-1-yl]-N-[(5-phenyl-4H-1,2,4-triazol-3-yl)methyl]pyrazolo[1,5-a][1,3,5]triazin-4-amine formate]
[1]
  DC50: 0.00331 µM
  (IC50 CDK12 high ATP) to (Degradation DC50 CDK12) ratio: 2547
CDK12/CycK
  IC50: 8.44 µM
[2]
  IC50: 0.0348 µM

## Brc1cnn2c(NCc3nnc(-c4ccccc4)[nH]3)nc(N3C[C@@H]4C[C@H]3CO4)nc12 [Example 120, 8-bromo-2-[(1S,4S)-2-oxa-5-azabicyclo[2.2.1]heptan-5-yl]-N-[(5-phenyl-4H-1,2,4-triazol-3-yl)methyl]pyrazolo[1,5-a][1,3,5]triazin-4-amine]
[1]
  DC50: 0.00508 µM
  (IC50 CDK12 high ATP) to (Degradation DC50 CDK12) ratio: 2588
CDK12/CycK
  IC50: 13.2 µM
[2]
  IC50: 0.0254 µM

## c1cncc(-c2cnn3c(NCc4nc5ccccc5[nH]4)nc(N4CCOCC4)nc23)c1 [Example 108, N-[(1H-benzimidazol-2-yl)methyl]-2-(morpholin-4-yl)-8-(pyridin-3-yl)pyrazolo[1,5-a][1,3,5]triazin-4-amine]
[1]
  DC50: 0.00553 µM
  (IC50 CDK12 high ATP) to (Degradation DC50 CDK12) ratio: >3617
CDK12/CycK
  IC50: > 20 µM
[2]
  IC50: 0.0896 µM

## Fc1cccc(-c2nnc(CNc3nc(N4CCNCC4)nc4c(Br)cnn34)[nH]2)c1 [Example 152, 8-bromo-N-{[5-(3-fluorophenyl)-4H-1,2,4-triazol-3-yl]methyl}-2-(piperazin-1-yl)pyrazolo[1,5-a][1,3,5]triazin-4-amine]
[1]
  DC50: 0.0127 µM
  (IC50 CDK12 high ATP) to (Degradation DC50 CDK12) ratio: 236
CDK12/CycK
  IC50: 2.99 µM
[2]
  IC50: 0.00386 µM

## CN1CCN(c2nc(NCc3nc4c(F)cccc4[nH]3)n3ncc(Br)c3n2)CC1 [Example 126, 8-bromo-N-[(4-fluoro-1H-benzimidazol-2-yl)methyl]-2-(4-methylpiperazin-1-yl)pyrazolo[1,5-a][1,3,5]triazin-4-amine]
[1]
  DC50: 0.000906 µM
  (IC50 CDK12 high ATP) to (Degradation DC50 CDK12) ratio: 7539
CDK12/CycK
  IC50: 6.83 µM
[2]
  IC50: 0.011 µM
